Read-outs that look alike come from different tables or passages of the source.
Assays:
[1] = tested on: DLD-1 BRCA2−/− cells; experiment: Homologous recombination synthetic lethal inhibition of proliferation, DLD-1 BRCA2-/- (Cell Titre Glo 3D); format: cell-based; details: Homo sapiens
Method in brief: (§1)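 Read-out: CellTiter-Glo 3D luminescence, day 7 for wt DLD-1, day 12 for BRCA2−/−, about 8-9 population doublings each. Seeding 1,500 or 3,000 cells/mL respectively. Dose range 10 μM–0.51 nM, 3-fold, 10 points, with re-dosing on day 6. IC50 from curve fit.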

[2] = tested on: DLD-1 cells; experiment: Inhibition of proliferation, DLD-1 BRCA2 wt control (Cell Titre Glo 3D); format: cell-based; details: Homo sapiens
Method in brief: as §1

[3] = DLD-1, DLD-1 BRCA2 −/− cells, mean, read-out: POLQ PD Prolif Lumin BRCA2 −/− mean pIC50 (converted)
[4] = DLD-1, DLD1 BRCA2 wt cells, mean, read-out: POLQ PD Prolif Lumin DLD1 mean PIC50 (converted)
[5] = DLD-1, first proliferation column (c5), DLD-1 BRCA2-/-, read-out: POLQ PD Prolif Lumin (converted)
[6] = DLD-1, second proliferation column (c6), DLD-1 BRCA2 wt control, read-out: POLQ PD Prolif Lumin (converted)

| IC50 [2, 4] [nM] | IC50 [2, 6] [nM] | SMILES | IC50 [1, 3] [nM] | IC50 [1, 5] [nM] |
| --- | --- | --- | --- | --- |
| 5010 | – | CC1(Oc2ncnc3c2nc(-c2ccc(OC4CNC4)cc2Cl)n3Cc2cc(Cl)ccn2)CC1 [Example T50, 8-(4-(azetidin-3-yloxy)-2-chlorophenyl)-9-((4-chloropyridin-2-yl)methyl)-6-(1-methylcyclopropoxy)-9H-purine] | 251 | – |
| > 10000 | – | CNC(=O)c1ccc(-c2nc3c(OC4(C)CC4)ncnc3n2Cc2cc(C)ccn2)c(Cl)c1 [Example T52, 3-chloro-N-methyl-4-(6-(1-methylcyclopropoxy)-9-((4-methylpyridin-2-yl)methyl)-9H-purin-8-yl)benzamide] | 501 | – |
| > 10000 | – | CC(=O)Nc1ccc(-c2nc3c(OC4(C)CC4)ncnc3n2Cc2cc(C)ccn2)c(Cl)c1 [Example T53, N-(3-chloro-4-(6-(1-methylcyclopropoxy)-9-((4-methylpyridin-2-yl)methyl)-9H-purin-8-yl)phenyl)acetamide] | 316 | – |
| > 10000 | – | CC1(Oc2ncnc3c2nc(-c2ccc(OCCCO)cc2Cl)n3Cc2cc(Cl)ccn2)CC1 [Example T64, 3-(3-chloro-4-(9-((4-chloropyridin-2-yl)methyl)-6-(1-methylcyclopropoxy)-9H-purin-8-yl)phenoxy)propan-1-ol] | 158 | – |
| > 10000 | – | CNCCOc1ccc(-c2nc3c(OC4(C)CC4)ncnc3n2Cc2cc(Cl)ccn2)c(Cl)c1 [Example T67, 2-(3-chloro-4-(9-((4-chloropyridin-2-yl)methyl)-6-(1-methylcyclopropoxy)-9H-purin-8-yl)phenoxy)-N-methylethan-1-amine] | 126 | – |
| > 10000 | – | CNCc1ccc(-c2nc3c(OC4(C)CC4)ncnc3n2Cc2cc(C)ccn2)c(Cl)c1 [Example T68, 1-(3-chloro-4-(6-(1-methylcyclopropoxy)-9-((4-methylpyridin-2-yl)methyl)-9H-purin-8-yl)phenyl)-N-methylmethanamine] | 1000 | – |
| > 10000 | – | Cc1ccnc(Cn2c(-c3ccc(OCCN)cc3Cl)nc3c(OC4(C)CC4)ncnc32)c1 [Example T69, 2-(3-chloro-4-(6-(1-methylcyclopropoxy)-9-((4-methylpyridin-2-yl)methyl)-9H-purin-8-yl)phenoxy)ethan-1-amine] | 200 | – |
| > 10000 | – | Cc1cnc(Cn2c(-c3ccc(O[C@H]4CCNC4)cc3Cl)nc3c(OC4(C)CC4)ncnc32)s1 [Example T70, (S)-2-((8-(2-chloro-4-(pyrrolidin-3-yloxy)phenyl)-6-(1-methylcyclopropoxy)-9H-purin-9-yl)methyl)-5-methylthiazole] | 631 | – |
| > 10000 | – | CC1(Oc2ncnc3c2nc(-c2ccc(OCCC(=O)O)cc2Cl)n3Cc2cccc(Cl)c2)CC1 [Example T87, 3-(3-chloro-4-(9-(3-chlorobenzyl)-6-(1-methylcyclopropoxy)-9H-purin-8-yl)phenoxy)propanoic acid] | 398 | – |
| – | > 10000 | CC(=O)COc1ccc(-c2nc3c(OC4(C)CC4)ncnc3n2Cc2cc(C)ccn2)c(Cl)c1 [Example T104, 1-(3-chloro-4-(6-(1-methylcyclopropoxy)-9-((4-methylpyridin-2-yl)methyl)-9H-purin-8-yl)phenoxy)propan-2-one] | – | 200 |
| – | > 10000 | Cc1ccnc(Cn2c(-c3ccc(N4CCNC4=O)cc3Cl)nc3c(OC4(C)CC4)ncnc32)c1 [Example T107, 1-(3-chloro-4-(6-(1-methylcyclopropoxy)-9-((4-methylpyridin-2-yl)methyl)-9H-purin-8-yl)phenyl)imidazolidin-2-one] | – | 398 |
| – | > 10000 | Cc1ccnc(Cn2c(-c3ccc(OC4CNC4)cc3Cl)nc3c(OC4(C)CC4)ncnc32)c1 [Example T111, 8-(4-(azetidin-3-yloxy)-2-chlorophenyl)-6-(1-methylcyclopropoxy)-9-((4-methylpyridin-2-yl)methyl)-9H-purine] | – | 316 |
| – | > 10000 | Cc1ccnc(Cn2c(-c3ccc(C(=O)N(C)C)cc3Cl)nc3c(OC4(C)CC4)ncnc32)c1 [Example T112, 3-chloro-N,N-dimethyl-4-(6-(1-methylcyclopropoxy)-9-((4-methylpyridin-2-yl)methyl)-9H-purin-8-yl)benzamide] | – | 1580 |
| – | > 10000 | Cc1ccnc(Cn2c(-c3ccc(CCC(N)=O)cc3Cl)nc3c(OC4(C)CC4)ncnc32)c1 [Example T116, 3-(3-chloro-4-(6-(1-methylcyclopropoxy)-9-((4-methylpyridin-2-yl)methyl)-9H-purin-8-yl)phenyl)propanamide] | – | 631 |
| – | > 10000 | Cc1ccnc(Cn2c(-c3ccc(C(=O)NCCO)cc3Cl)nc3c(OC4(C)CC4)ncnc32)c1 [Example T119, 3-chloro-N-(2-hydroxyethyl)-4-(6-(1-methylcyclopropoxy)-9-((4-methylpyridin-2-yl)methyl)-9H-purin-8-yl)benzamide] | – | 794 |
| – | > 10000 | Cc1ccnc(Cn2c(-c3ccc(NC(=O)[C@@H](C)O)cc3Cl)nc3c(OC4(C)CC4)ncnc32)c1 [Example T121, (R)-N-(3-chloro-4-(6-(1-methylcyclopropoxy)-9-((4-methylpyridin-2-yl)methyl)-9H-purin-8-yl)phenyl)-2-hydroxypropanamide] | – | 316 |
| – | > 10000 | Cc1ccnc(Cn2c(-c3ccc(OCCS(C)(=O)=O)cc3Cl)nc3c(OC4(C)CC4)ncnc32)c1 [Example T129, 8-(2-chloro-4-(2-(methylsulfonyl)ethoxy)phenyl)-6-(1-methylcyclopropoxy)-9-((4-methylpyridin-2-yl)methyl)-9H-purine] | – | 158 |

More lines, now with the values behind:

| SMILES | IC50 [2, 4] [nM] | IC50 [2, 6] [nM] | IC50 [1, 3] [nM] | IC50 [1, 5] [nM] |
| --- | --- | --- | --- | --- |
| Cc1ccnc(Cn2c(-c3cccc(CC(N)=O)c3Cl)nc3c(OC4(C)CC4)ncnc32)c1 [Example T56, 2-(2-chloro-3-(6-(1-methylcyclopropoxy)-9-((4-methylpyridin-2-yl)methyl)-9H-purin-8-yl)phenyl)acetamide] | > 10000 | – | 794 | – |
| Cc1cnc(Cn2c(-c3ccc(OCCN(C)C)cc3Cl)nc3c(OC4(C)CC4)ncnc32)s1 [Example T72, 2-(3-chloro-4-(6-(1-methylcyclopropoxy)-9-((5-methylthiazol-2-yl)methyl)-9H-purin-8-yl)phenoxy)-N,N-dimethylethan-1-amine] | > 10000 | – | 200 | – |
| Cc1cnc(Cn2c(-c3cccc(OCCN(C)C)c3Cl)nc3c(OC4(C)CC4)ncnc32)s1 [Example T73, 2-(2-chloro-3-(6-(1-methylcyclopropoxy)-9-((5-methylthiazol-2-yl)methyl)-9H-purin-8-yl)phenoxy)-N,N-dimethylethan-1-amine] | > 10000 | – | 631 | – |
| CNCCCOc1ccc(-c2nc3c(OC4(C)CC4)ncnc3n2Cc2ncc(C)s2)c(Cl)c1 [Example T74, 3-(3-chloro-4-(6-(1-methylcyclopropoxy)-9-((5-methylthiazol-2-yl)methyl)-9H-purin-8-yl)phenoxy)-N-methylpropan-1-amine] | > 10000 | – | 501 | – |
| CC1(Oc2ncnc3c2nc(-c2ccc(OCCN4CCNCC4)cc2Cl)n3Cc2nnco2)CC1 [Example T76, 2-((8-(2-chloro-4-(2-(piperazin-1-yl)ethoxy)phenyl)-6-(1-methylcyclopropoxy)-9H-purin-9-yl)methyl)-1,3,4-oxadiazole] | > 3160 | – | > 10000 | – |
| CC1(Oc2ncnc3c2nc(-c2cccc(/C=C/C(=O)O)c2Cl)n3Cc2cccc(Cl)c2)CC1 [Example T80, (E)-3-(2-chloro-3-(9-(3-chlorobenzyl)-6-(1-methylcyclopropoxy)-9H-purin-8-yl)phenyl)acrylic acid] | > 10000 | – | 100 | – |
| CC1(Oc2ncnc3c2nc(-c2ccc(OCCC(=O)O)cc2Cl)n3Cc2cccc(Cl)c2Cl)CC1 [Example T85, 3-(3-chloro-4-(9-(2,3-dichlorobenzyl)-6-(1-methylcyclopropoxy)-9H-purin-8-yl)phenoxy)propanoic acid] | > 10000 | – | 794 | – |
| CC1(Oc2ncnc3c2nc(-c2cccc(OCCC(=O)O)c2Cl)n3Cc2cccc(Cl)c2)CC1 [Example T89, 3-(2-chloro-3-(9-(3-chlorobenzyl)-6-(1-methylcyclopropoxy)-9H-purin-8-yl)phenoxy)propanoic acid] | > 10000 | – | 39.8 | – |
| C[C@@H](Oc1cccc(-c2nc3c(OC4(C)CC4)ncnc3n2Cc2cccc(Cl)c2)c1Cl)C(=O)O [Example T91, (R)-2-(2-chloro-3-(9-(3-chlorobenzyl)-6-(1-methylcyclopropoxy)-9H-purin-8-yl)phenoxy)propanoic acid] | > 10000 | – | > 10000 | – |
| CC1(Oc2ncnc3c2nc(-c2ccc(OCCc4nn[nH]n4)cc2Cl)n3Cc2cccc(Cl)c2)CC1 [Example T92, 8-(4-(2-(2H-tetrazol-5-yl)ethoxy)-2-chlorophenyl)-9-(3-chlorobenzyl)-6-(1-methylcyclopropoxy)-9H-purine] | > 10000 | – | 2000 | – |
| CNC(=O)COc1cccc(-c2nc3c(OC4(C)CC4)ncnc3n2Cc2cc(C)ccn2)c1Cl [Example T120, 2-(2-chloro-3-(6-(1-methylcyclopropoxy)-9-((4-methylpyridin-2-yl)methyl)-9H-purin-8-yl)phenoxy)-N-methylacetamide] | – | > 6310 | – | 158 |
| Cc1ccnc(Cn2c(-c3ccc(NC(=O)OCCO)cc3Cl)nc3c(OC4(C)CC4)ncnc32)c1 [Example T123, 2-hydroxyethyl (3-chloro-4-(6-(1-methylcyclopropoxy)-9-((4-methylpyridin-2-yl)methyl)-9H-purin-8-yl)phenyl)carbamate] | – | > 10000 | – | 200 |

— US20250195530A1, “POLQ INHIBITORS” (ASTRAZENECA AB, priority 2022, published 2025)
